In US11279712B2, “Macrocyclic compounds that inhibit MCL-1 protein” (AMGEN INC., priority 2017, dated 2022) one finds IC50 data, which are given here for nine compounds.

By IC50 is commonly meant the concentration at which inhibition is half-maximal.

Where two headings read alike, the source gives them in different places.

Assay [1] addresses Mcl-1/Bim interaction (recombinant human Mcl-1 residues 171-327) (Homo sapiens (Human), UniProt Q07820). The assay is described as follows: Cell Free Mcl-1:Bim Affinity Assay (Mcl-1 HTRF). Conditions: TR-FRET, 0.1 nM Mcl-1(171-327), 0.05 nM biotin-Bim(51-76). It counts as binding. In outline: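 TR-FRET competition using 0.1 nM His-tagged Mcl-1(171-327), 0.05 nM biotin-Bim(51-76), Eu anti-His and streptavidin-Xlent in 20 mM Hepes pH 7.5, 150 mM NaCl, Brij-35, 1 mM DTT. Compounds pre-incubated 60 min with protein and peptide, then overnight after detection mix; 665/620 nm ratio fitted to four-parameter curves for IC50 (duplicates).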
Background: In TR-FRET formats the signal depends on donor and acceptor labels being close together.

The subject of assay [2] is OPM-2 human multiple myeloma cell line. Nature of the assay: Cell Viability Assay (OPM-2 10 FBS). It counts as cell-based. Conditions: OPM-2 cells, CellTiter-Glo, read-out: OPM-2 10% FBS IC50 IP. In outline: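 OPM-2 myeloma cells seeded at 3000 cells/well in RPMI 1640 with 10% FBS and exposed to serially diluted compounds for 16 h at 37° C., 5% CO2.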
In general terms: In ATP-based viability assays light output follows the ATP content of the culture.

Mcl-1/Bim interaction (recombinant human Mcl-1 residues 171-327), sequence (Q07820 171-327): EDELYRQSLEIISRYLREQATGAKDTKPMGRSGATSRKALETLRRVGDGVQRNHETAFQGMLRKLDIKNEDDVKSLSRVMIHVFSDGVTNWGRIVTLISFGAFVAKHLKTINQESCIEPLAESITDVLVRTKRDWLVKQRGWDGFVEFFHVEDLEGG

For `C[C@@H]1[C@@H](C)CCC[C@H](CN2CCN3CCN(S(C)(=O)=O)C[C@@H]3C2)[C@@H]2CC[C@H]2CN2C[C@@]3(CCCc4cc(Cl)ccc43)COc3ccc(cc32)C(=O)NS1(=O)=O` (stereo in doubt) [Example 30], the half-inhibitory concentration (IC50) in assay [1] was 0.516 nM; in assay [2] (16 h) it was 370 nM.

Take `C[C@@H]1[C@@H](C)CCC[C@H](CN2CCN3CCOC[C@@H]3C2)[C@@H]2CC[C@H]2CN2C[C@@]3(CCCc4cc(Cl)ccc43)COc3ccc(cc32)C(=O)NS1(=O)=O` (stereo in doubt) [Example 32]: the results for the IC50 in assay [1] and in assay [2] (16 h) were 0.493 nM and 380 nM, respectively.

Consider `CC(=O)N1CCN(C[C@H]2CCC[C@H](C)[C@@H](C)S(=O)(=O)NC(=O)c3ccc4c(c3)N(C[C@@H]3CC[C@@H]23)C[C@@]2(CCCc3cc(Cl)ccc32)CO4)CC1` (stereo in doubt) [Example 33], for which the IC50 in assay [1] stood at 0.172 nM; in assay [2] (16 h) it was 411 nM.

On to `COCCN1CCN(C[C@H]2CCC[C@H](C)[C@@H](C)S(=O)(=O)NC(=O)c3ccc4c(c3)N(C[C@@H]3CC[C@@H]23)C[C@@]2(CCCc3cc(Cl)ccc32)CO4)CCC1=O` (stereo in doubt) [Example 36], for which the IC50 in assay [1] stood at 0.265 nM; in assay [2] (Homo sapiens, OPM-2, 16 h), 443 nM.

Take `COCCN1CCCN(C[C@H]2CCC[C@H](C)[C@@H](C)S(=O)(=O)NC(=O)c3ccc4c(c3)N(C[C@@H]3CC[C@@H]23)C[C@@]2(CCCc3cc(Cl)ccc32)CO4)CC1=O` (stereo in doubt) [Example 42]: the IC50 stood at 0.408 nM in assay [1] and 593 nM in assay [2] (Homo sapiens, OPM-2, 16 h).

`C[C@@H]1[C@@H](C)CCC[C@H](CN2CCOCC2)[C@@H]2CC[C@H]2CN2C[C@@]3(CCCc4cc(Cl)ccc43)COc3ccc(cc32)C(=O)NS1(=O)=O` (stereo in doubt) [Example 55]: the IC50 in assay [1] was 0.843 nM; in assay [2] (16 h), 1020 nM.

Turning to `C[C@@H]1[C@@H](C)C/C=C/[C@H](CN2CCOCC2)[C@@H]2CC[C@H]2CN2C[C@@]3(CCCc4cc(Cl)ccc43)COc3ccc(cc32)C(=O)NS1(=O)=O` (stereo in doubt) [Example 62], the IC50 in assay [1] was 0.388 nM; in assay [2] (Homo sapiens, OPM-2, 16 h), 1440 nM.

With `C[C@@H]1[C@@H](C)CCC[C@H](CN2CCN3CCNC[C@@H]3C2)[C@@H]2CC[C@H]2CN2C[C@@]3(CCCc4cc(Cl)ccc43)COc3ccc(cc32)C(=O)NS1(=O)=O` (stereo in doubt) [Example 81], the IC50 in assay [1] was determined as 0.831 nM; in assay [2] (Homo sapiens, OPM-2, 16 h) it was 3560 nM.

Consider `C[C@@H]1[C@@H](C)CCC[C@H](C=O)[C@@H]2CC[C@H]2CN2C[C@@]3(CCCc4cc(Cl)ccc43)COc3ccc(cc32)C(=O)NS1(=O)=O` [Example 60], for which the IC50 in assay [1] stood at 0.552 nM; in assay [2] (16 h), 1330 nM.
